Measurements as given in patent US6410564B1, “Naphthyl compounds, intermediates, processes, compositions, and methods” (Eli Lilly and Company, priority 1994, dated 2002).
Like-named read-outs stand apart in the source and are kept apart here.

Columns and labels:
[1] = tested on: ovariectomized (OVX) female Sprague Dawley rats; assay: Osteoporosis Test Procedure: distal femur metaphysis X-ray image analysis, OVX rats, 35 days; format: in vivo, rat; conditions: for Distal Femur Metaphysis (X-ray Image Analysis-Gray Score): 0.1 mg/kg, mean ± SEM
Source text: (§1) Seventy-five day old female Sprague Dawley rats (weight range of 200 to 225 g) were obtained from Charles River Laboratories (Portage, Mich.). The animals were either bilaterally ovariectomized (OVX) or exposed to a Sham surgical procedure at Charles River Laboratories, and then shipped after one week. Upon arrival, they were housed in metal hanging cages in groups of 3 or 4 per cage and had ad libitum access to food (calcium content approximately 0.5%) and water for one week. Room temperature was maintained at 22.2°±1.7° C. with a minimum relative humidity of 40%. The photoperiod in the room was 12 hours light and 12 hours dark.
Following the General Preparation Procedure, infra, the rats were treated daily for 35 days (6 rats per treatment group) and sacrificed by carbon dioxide asphyxiation on the 36th day. The 35 day time period was sufficient to allow maximal reduction in bone density, measured as described herein. At the time of sacrifice, the uteri were removed, dissected free of extraneous tissue, and the fluid contents were expelled before determination of wet weight in order to confirm estrogen deficiency associated with complete ovariectomy. […] The uteri were then placed in 10% neutral buffered formalin to allow for subsequent histological analysis.
The right femurs were excised and digitilized x-rays generated and analyzed by an image analysis program (NIH image) at the distal metaphysis. The proximal aspect of the tibiae from these animals were also scanned by quantitative computed tomography.
In accordance with the above procedures, compounds of the present invention and ethynyl estradiol (EE2) in 20% hydroxypropyl β-cyclodextrin were orally administered to test animals. Distal femur metaphysis data presented in Tables 2 and 3 below are the results of formula I compound treatments compared to intact and ovariectomized test animals. Results are reported as the mean ± the standard error of the mean.

[2] = tested on: ovariectomized (OVX) female Sprague Dawley rats; assay: Serum cholesterol in OVX rats, 4-day dosing; format: in vivo, rat
Source text: as §1
(§2) Dosing Regimen Tissue Collection. After a one week acclimation period (therefore, two weeks post-OVX) daily dosing with test compound was initiated. 17α-ethynyl estradiol or the test compound were given orally, unless otherwise stated, as a suspension in 1% carboxymethylcellulose or dissolved in 20% cyclodextrin. Animals were dosed daily for 4 days. Following the dosing regimen, animals were weighed and anesthetized with a ketamine: Xylazie (2:1, V:V) mixture and a blood sample was collected by cardiac puncture. The animals were then sacrificed by asphyxiation with CO2, the uterus was removed through a midline incision, and a wet uterine weight was determined.
Cholesterol Analysis. Blood samples were allowed to clot at room temperature for 2 hours, and serum was obtained following centrifugation for 10 minutes at 3000 rpm. Serum cholesterol was determined using a Boehringer Mannheim Diagnostics high performance cholesterol assay. Briefly the cholesterol was oxidized to cholest-4-en-3-one and hydrogen peroxide. The hydrogen peroxide was then reacted with phenol and 4-aminophenazone in the pressure of peroxidase to produce a p-quinone imine dye, which was read spectrophotemetrically at 500 nm. Cholesterol concentration was then calculated against a standard curve. The entire assay was automated using a Biomek Automated Workstation.
(§3) Data presented in Table 1 below show comparative results among ovariectomized rats, rats treated with 17α-ethynyl estradiol (EE2; an orally available form of estrogen), and rats treated with certain compounds of the present invention. […] This uterine response to estrogen is well recognized in the art.
(§4) The data presented in the Tables 1 below reflects the response of 5 to 6 rats per treatment.

[3] = tested on: Uterine Eosinophil Peroxidase (EPO); conditions: rat, in vivo; for Uterine EPO (V. max): po
Source text: as §1, §2
Uterine Eosinophil Peroxidase (EPO) Assay. Uteri were kept at 4° C. until time of enzymatic analysis. The uteri were then homogenized in 50 volumes of 50 mM Tris Buffer (pH −8.0) containing 0.005% Triton X-100. Upon addition of 0.01% hydrogen peroxide and 10 mM O-phenylenediamine (final concentrations) in Tris buffer, increase in absorbance was monitored for one minute at 450 nm. The presence of eosonophils in the uterus is an indication of estrogenic activity of a compound. The maximal velocity of a 15 second interval was determined over the initial, linear portion of the reaction curve.
As is expressed in the below data, estrogenicity also was assessed by evaluating the adverse response to eosinophil infiltration into the uterus.
as §4

[4] = tested on: ovariectomized (OVX) female Sprague Dawley rats; conditions: rat, in vivo, po, 4 days
Protocol: In the examples illustrating the methods, a post-menopausal model was used in which effects of different treatments upon circulating lipids were determined.
as §1, §2, §3, §4

[5] = Rattus norvegicus, po, 96 h, oral daily for 4 days, dose 0.1 mg/kg, read-out: Serum Cholesterol (% decrease vs. OVX)
[6] = Rattus norvegicus, po, 96 h, oral daily for 4 days, read-out: Serum Cholesterol (% decrease vs. OVX)
[7] = female, Sprague Dawley, 0.1 mg/kg, 4 days
[8] = female, Sprague Dawley, 1 mg/kg, 4 days
[9] = female, Sprague Dawley, 10 mg/kg, 4 days

| Structure (SMILES) | Uterine EPO (V. max) ([3]; 0.1 mg/kg) | Uterine EPO (V. max) [3, 7] | Uterine EPO (V. max) [3, 8] | Uterine EPO (V. max) [3, 9] | Uterine Weight (% increase vs. OVX) ([4]; 0.1 mg/kg) [%] | Uterine Weight (% increase vs. OVX) ([4]; 1 mg/kg) [%] | Uterine Weight (% increase vs. OVX) ([4]; 10 mg/kg) [%] | Uterine EPO (V. max) ([3]; female, Sprague Dawley, 0.01 mg/kg, 4 days) | Uterine Weight (% increase vs. OVX) ([4]; 0.01 mg/kg) [%] | Distal Femur Metaphysis (X-ray Image Analysis-Gray Score) ([1]; Table 2, oral daily 35 days in 20% cyclodextrin, OVX control 5.5 ± 0.6, Sham 30.5 ± 4.3) | Distal Femur Metaphysis (X-ray Image Analysis-Gray Score) ([1]; Table 3, oral daily 35 days in 20% cyclodextrin, OVX control 7.2 ± 2.2, Sham 44.7 ± 6.4) | bone loss / femur density after ovariectomy (in words) ([1]; oral, 35 days) | Serum Cholesterol (% decrease vs. OVX) ([2]; oral daily for 4 days, dose 0.1 mg/kg) [%] | serum cholesterol compared to ovariectomized control animals (in words) ([2]; oral, 4 days, EE2 at 0.1 mg/kg/day) | eosinophil infiltration into the uterus (number of eosinophils in the stromal layer, in words) [3] | inhibition in vivo at 0.1 mg/kg [2, 5] [%] | inhibition in vivo at 1 mg/kg [2, 6] [%] | inhibition in vivo at 10 mg/kg [2, 6] [%] | inhibition in vivo at 0.01 mg/kg ([2]; Rattus norvegicus, po, 96 h, oral daily for 4 days, dose 0.01 mg/kg, read-out: Serum Cholesterol (% decrease vs. OVX)) [%] |
| --- | --- | --- | --- | --- | --- | --- | --- | --- | --- | --- | --- | --- | --- | --- | --- | --- | --- | --- | --- |
| C#C[C@]1(O)CC[C@H]2[C@@H]3CCc4cc(O)ccc4[C@H]3CC[C@@]21C [EE2, 17α-ethynyl estradiol, reference compound] | 116.4 | – | – | – | – | – | – | – | – | 32.8 ± 7.9 | 44.4 ± 4.8 | prevented this loss | 81.4 | caused a decrease in serum cholesterol | substantial, expected increase in eosinophil infiltration | – | – | – | – |
| Oc1ccc2c(Cc3ccc(OCCN4CCCC4)cc3)c(-c3ccccc3)ccc2c1 [Example 12] | – | 12.0 | 4.8 | 4.5 | 26.3 | 18.6 | 25.1 | – | – | – | – | – | – | – | – | 46.3 | 49.9 | 50.1 | – |
| CCN(CC)CCOc1ccc(Cc2c(-c3ccc(OC)cc3)ccc3cc(OC)ccc23)cc1.Cl [Example 22, [2-(4-Methoxyphenyl)-6-methoxynaphthalen-1-yl][4-[2-(1-N,N-diethylamino)ethoxy]phenyl]methane hydrochloride] | – | 45.0 | 41.1 | 46.2 | 83.9 | 87.5 | 89.3 | – | – | – | – | – | – | – | – | 72 | 60.5 | 68.7 | – |
| COc1ccc(-c2ccc3cc(OC)ccc3c2Cc2ccc(OCCN3CCCCCC3)cc2)cc1.Cl [Example 26, [2-(4-Methoxyphenyl)-6-methoxynaphthalen-1-yl][4-[2-(1-hexamethyleneiminyl)ethoxy]phenyl]methane hydrochloride] | – | – | – | – | – | – | – | – | – | – | – | – | – | – | – | 45.1 | 55.5 | 60.6 | – |
| Oc1ccc(-c2ccc3cc(O)ccc3c2Cc2ccc(OCCN3CCOCC3)cc2)cc1 [Example 32] | – | 9.3 | 39.3 | 34.8 | 50.5 | 55.4 | 69.7 | – | – | – | – | – | – | – | – | 57.9 | 60.3 | 65.7 | – |
| CC1(C)CCN(CCOc2ccc(Cc3c(-c4ccc(O)cc4)ccc4cc(O)ccc34)cc2)C1 [Example 33, [2-(4-Hydroxyphenyl)-6-hydroxynaphthalen-1-yl][4-[2-(1-(3,3-dimethyl)pyrrolidinyl)ethoxy]phenyl]methane] | – | 12.9 | 55.2 | 73.5 | 40.8 | 79.0 | 63.0 | – | – | – | – | – | – | – | – | 25.2 | 41.1 | 52.8 | – |

Further lines, with some results ahead:

| Uterine EPO (V. max) ([3]; 0.1 mg/kg) | Uterine EPO (V. max) [3, 7] | Uterine EPO (V. max) [3, 8] | Uterine EPO (V. max) [3, 9] | Uterine Weight (% increase vs. OVX) ([4]; 0.1 mg/kg) [%] | Uterine Weight (% increase vs. OVX) ([4]; 1 mg/kg) [%] | Uterine Weight (% increase vs. OVX) ([4]; 10 mg/kg) [%] | Uterine EPO (V. max) ([3]; female, Sprague Dawley, 0.01 mg/kg, 4 days) | Uterine Weight (% increase vs. OVX) ([4]; 0.01 mg/kg) [%] | Structure (SMILES) | Distal Femur Metaphysis (X-ray Image Analysis-Gray Score) ([1]; Table 2, oral daily 35 days in 20% cyclodextrin, OVX control 5.5 ± 0.6, Sham 30.5 ± 4.3) | Distal Femur Metaphysis (X-ray Image Analysis-Gray Score) ([1]; Table 3, oral daily 35 days in 20% cyclodextrin, OVX control 7.2 ± 2.2, Sham 44.7 ± 6.4) | bone loss / femur density after ovariectomy (in words) ([1]; oral, 35 days) | Serum Cholesterol (% decrease vs. OVX) ([2]; oral daily for 4 days, dose 0.1 mg/kg) [%] | serum cholesterol compared to ovariectomized control animals (in words) ([2]; oral, 4 days, EE2 at 0.1 mg/kg/day) | eosinophil infiltration into the uterus (number of eosinophils in the stromal layer, in words) [3] | inhibition in vivo at 0.1 mg/kg [2, 5] [%] | inhibition in vivo at 1 mg/kg [2, 6] [%] | inhibition in vivo at 10 mg/kg [2, 6] [%] | inhibition in vivo at 0.01 mg/kg ([2]; Rattus norvegicus, po, 96 h, oral daily for 4 days, dose 0.01 mg/kg, read-out: Serum Cholesterol (% decrease vs. OVX)) [%] |
| --- | --- | --- | --- | --- | --- | --- | --- | --- | --- | --- | --- | --- | --- | --- | --- | --- | --- | --- | --- |
| – | 3.6 | 2.9 | 3.4 | 52.1 | 22.8 | 75.2 | – | – | CC(C)(C)C(=O)Oc1ccc(-c2ccc3cc(OC(=O)C(C)(C)C)ccc3c2Cc2ccc(OCCN3CCCCC3)cc2)cc1 [Example 4, [2-(4-Pivaloyloxyphenyl)-6-pivaloyloxynaphthalen-1-yl][4-[2-(1-piperidinyl)ethoxy]phenyl]methane] | – | – | – | – | – | – | 21.2 | 37.2 | 20.8 | – |
| – | 3.4 | 4.3 | 2.6 | 43.2 | 16.0 | 25.3 | – | – | CCCCS(=O)(=O)Oc1ccc(-c2ccc3cc(OS(=O)(=O)CCCC)ccc3c2Cc2ccc(OCCN3CCCCC3)cc2)cc1 [Example 5, [2-(4-n-Butylsulfonyloxyphenyl)-6-n-butylsulfonyloxynaphthalen-1-yl][4-[2-(1-piperidinyl)ethoxy]phenyl]methane] | – | – | – | – | – | – | 6 | 62 | 46.2 | – |
| – | 4.8 | 3.9 | 3.9 | 48.1 | 47.4 | 14.4 | – | – | Oc1ccc2c(Cc3ccc(OCCN4CCCCC4)cc3)c(-c3ccccc3)ccc2c1 [Example 11, [2-Phenyl-6-hydroxynaphthalen-1-yl][4-[2-(1-piperdinyl)ethoxy]phenyl]methane] | – | – | – | – | – | – | 60.2 | 73.5 | 72.4 | – |
| – | 7.0 | 5.2 | 5.5 | 41.6 | 21.2 | 53.7 | 4.6 | 29.3 | COc1ccc(-c2ccc3ccccc3c2Cc2ccc(OCCN3CCCCC3)cc2)cc1.Cl [Example 15, [2-(4-Methoxyphenyl)-naphthalen-1-yl][4-[2-(1-piperdinyl)ethoxy]phenyl]methane hydrochloride] | – | – | – | – | – | – | 53.4 | 66 | 55.4 | 12.4 |
| – | 0.9 | 5.4 | 4.5 | −12.4 | 1.0 | 7.1 | – | – | Oc1ccc(-c2ccc3cc(O)ccc3c2Cc2ccc(OCCN3CCCC3)cc2)cc1 [Example 19] | – | – | – | – | – | – | 4.5 | 19.7 | 40.9 | – |
